# Source: US9579299B2, “CNS pharmaceutical compositions and methods of use” (TARGIA PHARMACEUTICALS, priority 2008, dated 2017)
# Several values for one entry are separate records, joined by “and”; a condition that tells them apart may be missing. Identical values can stand only once. Entries after “also recorded” stand apart in the source; their conditions may differ.
# Experiments:
# [1] = test system: 8 patients suffering from GAD; test: Example 10: single blind trial of alprazolam with neuromodulators in GAD; type: in vivo, human; settings: alprazolam 1 mg with pseudoephedrine 60 mg, guaifenesinER 600 mg 15 minutes later; one week
# Procedure: The study was a single blind trial in which a panel of 8 patients suffering from GAD were administered alprazolam (1 mg), pseudoephedrine (60 mg), and guaifenesinER (600 mg). Subjects underwent an initial screening and then two weeks of testing with the medications of the study (see FIG. 7 for an illustration of the study scheme). Fourteen days prior to the first treatment session, subjects were screened with a standard medical/psychiatric history and physical exam (Screening Visit, Visit 1). Standard laboratory tests were performed at Screening Visit 1 including those of chemistry, hematology and urinalysis, urine test for drugs of abuse, HIV and hepatitis B and C serology tests, 12-lead resting electrocardiogram, and serum pregnancy test for females.
# Prior to administration of the placebo treatment, the subjects were rated on the Hamilton Anxiety Scale, Quality of Life Questionnaire, and the Stanford Sleepiness Scale (SSS) (Visit 2, data not shown). Subjects complained of oversedation (SSS score of 4 or greater) from their psychopharmacologic regimen, which included benzodiazepine or alprazolam therapy.
# Subjects were given a placebo medication that mimics the two neuromodulators for 7 days and underwent another series of tests at the end of this 7-day period (Visit 3). […]
# [2] = parent drug; cited from earlier work
# four healthy volunteers [3] = test: Example 7: Stanford Sleepiness Scale study with alprazolam; type: in vivo, human; settings: for time until subjects were asleep: all four subjects; for 2 Hr SSS / 4 Hr SSS / 6 Hr SSS: individual subjects
# Procedure: The research study was performed on four healthy volunteers, ages 25-41 years old and 60-75 kg. The study was carried out in two sessions with one week in between. During the study volunteers completed a test to measure sleepiness by Stanford Sleepiness Scale (SSS). This SSS test was done before doses of the compositions being evaluated and 2, 4 and 6 hours after such doses (see FIG. 5 for an illustration of the study scheme).
# At the first session, volunteers received the treatment (Alprazolam 1.0 mg)+PLAC (placebo)+ and 15 minutes later another PLAC. […] Their SSS score at 2 hour time point was 6 (woozy, fighting sleep). […] The other 2 patients slept through the 2, 4 and 6 hour testing.
# At the second study session, volunteers received the treatment (Alprazolam 1.0 mg+60 mg of pseudoephedrine) and 15 minutes later received 400 mg of guaifenesin. […] After 2 and half hours, three out of the four subjects woke up and stayed awake for the rest of the time. Their SSS scores for 4 hour time point test were 2, 3 and 5, for 6 hour time point test SSS scores were 1, 3, 2. The fourth subject woke up for the 6 hour time point test and their SSS score was 3.
# [4] = CNS active agent; cited from earlier work
# [5] = test system: one GAD patient, a person; test: Example 11: alprazolam with neuromodulators in one GAD patient; type: in vivo, human
# Procedure: The study was performed on one GAD patient. Fourteen days prior to the first treatment session, the subject was screened with a standard medical/psychiatric history and physical exam. The subject was rated on the Hamilton Anxiety Scale the Stanford Sleepiness Scale (SSS).
# During their second visit, immediately prior to administration of alprazolam and placebo, the subject was rated on the Hamilton Anxiety Scale, Quality of Life Questionaire and SSS (pre dose, time 0). Following these tests, the subject received a regular morning alprazolam dose and placebo to mimic pseudoephedrine. Fifteen minutes later, the subject received approximately 120 ml of water and placebo to mimic guaifenesin. The subject was rated on the SSS at 2 hours (anticipated peak plasma concentration) and 4 hours following administration alprazolam. The subject was given enough placebo medication to last for one week (until Visit 3) with the exact instructions to take their medications in the same manner as described above. During this 7-day period, the subject completed an SSS questionaire (Table 16, Placebo). Ratings on the SSS were recorded immediately before (pre) and 3 hours following (post) administration of alprazolam.
# During Visit 3, the subject was rated on the Hamilton Anxiety Scale, Quality of Life Questionaire, and SSS 3 hours after initial dose. The subject was then given the active neuromodulators and told to start with them on the next day following ingestion of the regular alprazolam medication. The subject took pseudoephedrine with alprazolam and Mucinex 15 minutes later (neuromodulators were given no more than twice a day and not after 6 PM). Three hours after each dose, the subject recorded their SSS measurements (Table 16, Treatment). […] Throughout this week, the subject recorded SSS scores of 1 (high alertness, no sedatition).
# subject = test: Example 5: Lorazepam with pseudoephedrine and Mucinex, subject report; type: in vivo, human; settings: Lorazepam 1 mg and pseudoephedrine 60 mg; 15 minutes later Mucinex 600 mg
# Procedure: The subject reported that they took Lorazepam 1 mg and pseudoephedrine 60 mg at 12 noon and 15 minutes later ingested and Mucinex 600 mg.
# four healthy volunteers [6] = test: Example 9: Stanford Sleepiness Scale study with lorazepam; type: in vivo, human; settings: for 2:00 SSS / 4:00 SSS / 6:00 SSS / time until subject was asleep: individual subjects
# Procedure: The purpose of this study was to determine if the co-administration of pseudoephedrine and guaifenesin with lorazepam is effective in reducing the sedation commonly seen with the administration of lorazepam alone. The research study was performed on four healthy volunteers ages 25-41 years old and 60-75 kg. The study was carried out by two sessions with a one-week interval between the sessions. During the study volunteers completed a set of tests to measure sleepiness by the Stanford Sleepiness Scale (SSS). This test was done before doses of study drug and 2, 4 and 6 hours after doses of study drug (see FIG. 5 for an illustration of the study scheme).
# At the first study session volunteers received the treatment (Lorazepam 1.0 mg)+PLAC (placebo)+ and 15 minutes later another PLAC. […] They stayed awake at the 4- and 6-hour time points. Their SSS scores were 2. Two subjects were asleep in one hour. One of them slept 3.5 hours, their SSS at the 6-hour time point was 2. The second subject slept 2.5 hours, and their SSS scores for both the 4- and 6-hour time points were 2. […] They remained awake at the 4- and 6-hour time points. Their SSS scores were 2.
# At the second study session volunteers received the treatment (Lorazepam 1.0 mg+60 mg of pseudoephedrine) and 15 minutes later received 400 mg of guaifenesin. During this session all four subjects remained awake most of the time. […] They missed the 2-hour time point measurement, and their SSS scores for the 4- and 6-hour time points were 2 and 3, respectively. […] Their SSS score for 2-hour time point was 2. This subject was asleep again within 3 and a half hours and slept for one hour. They missed the 4-hour time point, but was awake for measurements at the 6-hour time point (SSS was 2). […] They stayed awake the rest of the time, and their SSS scores for the 2-, 4-, and 6-hour time points were 3,2,3 respectively.
# [7] = test system: Volunteer A, a healthy person; test: Example 6: Volunteer A, Lorazepam with and without neuromodulators; type: in vivo, human
# Procedure: Volunteer A, a healthy person ([…], 95 Kg), was prescribed 1 mg Lorazepam (BDR) by their family doctor for anxiety and anxiety related insomnia. Volunteer A took Lorazepam in conjunction with the neuromodulators to reduce Lorazepam's associated sedative side-effects. Volunteer A, who felt their anxiety peak particularly on weekends, agreed to take Lorazepam during the day together with the neuromodulators. […] When taking Lorazepam simultaneously with Pseudoephedrine, Guaifenesin and, Volunteer A was sedated and less anxious.
# [8] = First Visit Day on Placebo: Alprazolam 1.0 mg + placebo
# [9] = First Visit Day on Placebo: Alprazolam 1.0 mg + placebo, listed as alprazolam
# [10] = Second Visit Day on Active Neuromodulation: Alprazolam 1.0 mg + 60 mg pseudoephedrine, 400 mg guaifenesin 15 minutes later
# [11] = Second Visit Day on Active Neuromodulation: Alprazolam 1.0 mg + 60 mg pseudoephedrine, 400 mg guaifenesin 15 minutes later, listed as alprazolam
# [12] = First Visit Day on Placebo: Lorazepam 1.0 mg + placebo
# [13] = First Visit Day on Placebo: Lorazepam 1.0 mg + placebo, listed as lorazepam
# [14] = Lorazepam 1.0 mg + pseudoephedrine, guaifenesin 15 minutes later
# [15] = Second Visit Day on Active Neuromodulation: Lorazepam 1.0 mg + 60 mg pseudoephedrine, 400 mg guaifenesin 15 minutes later
# [16] = Second Visit Day on Active Neuromodulation: Lorazepam 1.0 mg + 60 mg pseudoephedrine, 400 mg guaifenesin 15 minutes later, listed as lorazepam
# [17] = 1 mg Lorazepam together with Pseudoephedrine followed by Guaifenesin after 15 minutes
# [18] = Lorazepam followed 15 minutes later by Guaifenesin
# [19] = Lorazepam simultaneously with Pseudoephedrine, Guaifenesin
# [20] = Lorazepam together with pseudoephedrine
structure (smiles),measurement,setting,value
Cc1nnc2n1-c1ccc(Cl)cc1C(c1ccccc1)=NC2 [Alprazolam],sedation-related effects as measured by the SSS,[1],significantly reduced
same,Elimination Half-Life,[2],6 to 12 h
same,time until subjects were asleep,four healthy volunteers [3]; Alprazolam 1.0 mg + placebo,within an hour and a half
same,time until subjects were asleep,"four healthy volunteers [3]; Alprazolam 1.0 mg + pseudoephedrine, guaifenesin 15 minutes later",within an hour and a half
same,2 Hr SSS,four healthy volunteers [3]; [8],6
same,4 Hr SSS,four healthy volunteers [3]; [8],6
same,2 Hr SSS,four healthy volunteers [3]; [9],X - asleep (3×) and 6
same,4 Hr SSS,four healthy volunteers [3]; [9],X - asleep (3×) and 6
same,6 Hr SSS,four healthy volunteers [3]; [9],X - asleep (3×) and 3
same,2 Hr SSS,four healthy volunteers [3]; [10],X - asleep
same,4 Hr SSS,four healthy volunteers [3]; [10],2 and 3 and 5
same,6 Hr SSS,four healthy volunteers [3]; [10],1 and 3 and 2
same,4 Hr SSS,four healthy volunteers [3]; [11],2 and X - asleep and 5 and 3
same,6 Hr SSS,four healthy volunteers [3]; [11],1 and 3 (2×) and 2
same,total sleep time,"four healthy volunteers [3]; second session, Alprazolam administrated with neuromodulators, all four patients",1.5 to 2.5 h
same,Tmax,[4],1 to 2 h
same,bioactivity,[4],55%
same,"alertness and sedation by SSS, in words",[5]; 7-day period on alprazolam + placebo,significantly reduced alertness and increased sedation
same,SSS Score,"[5]; Placebo (alprazolam + placebo), post: 3 hours following alprazolam, Days 1-7",X - asleep
same,SSS Score,"[5]; Placebo column, 3 h post dose (before Day 1)",X - asleep
same,SSS Score,"[5]; Placebo column, Screen",6
same,SSS Score,"[5]; Treatment (alprazolam + pseudoephedrine, Mucinex 15 minutes later), post: three hours after dose, Days 8-15",1
same,SSS Score,"[5]; Treatment (alprazolam + pseudoephedrine, Mucinex 15 minutes later), pre, Days 10-15",1
same,efficacy by Hamilton Anxiety Scale,[5]; alprazolam + active neuromodulators,did not show any reduction in the efficacy
same,"SSS data relative to placebo treatment, in words",[5]; week on alprazolam + active neuromodulators,dramatic improvement relative to the placebo treatment
O=C1Nc2ccc(Cl)cc2C(c2ccccc2Cl)=NC1O (centres unmarked) [Lorazepam],subject-reported effects,subject,a little “loopy”
same,Elimination Half-Life,[2],10 to 20 h
same,2:00 SSS,four healthy volunteers [6]; [12],X - Asleep
same,4:00 SSS,four healthy volunteers [6]; [12],2
same,6:00 SSS,four healthy volunteers [6]; [12],2
same,4:00 SSS,four healthy volunteers [6]; [13],2 (2×) and 3 and X - Asleep
same,6:00 SSS,four healthy volunteers [6]; [13],2 (3×) and X - Asleep
same,sleep duration of individual subjects,four healthy volunteers [6]; Lorazepam 1.0 mg + placebo,three hours and 3.5 hours and 2.5 hours and 1 hour 15 minutes
same,time until subject was asleep,four healthy volunteers [6]; Lorazepam 1.0 mg + placebo,within a half hour; also recorded: in one and a half hours
same,sleep duration of individual subjects,four healthy volunteers [6]; [14],stayed awake throughout the study and half an hour and 15 minutes and one hour
same,time until subject was asleep,four healthy volunteers [6]; [14],within an hour and a half
same,2:00 SSS,four healthy volunteers [6]; [15],3 and 2
same,4:00 SSS,four healthy volunteers [6]; [15],3 and 2
same,6:00 SSS,four healthy volunteers [6]; [15],3 and 2
same,2:00 SSS,four healthy volunteers [6]; [16],3 (2×) and X - Asleep and 2
same,4:00 SSS,four healthy volunteers [6]; [16],3 and 2 (2×) and X - Asleep
same,6:00 SSS,four healthy volunteers [6]; [16],3 (3×) and 2
same,total sleep time,"four healthy volunteers [6]; second session, Lorazepam administrated with neuromodulators, two subjects",30 min
same,anxiety reported,[7]; [17],feeling at ease and anxiety free
same,sedation reported,[7]; [17],did not feel sedated
same,anxiety reported,[7]; Lorazepam alone,their anxiety was ameliorated
same,sedation reported,[7]; Lorazepam alone,severely sedated
same,sleep in an afternoon,[7]; Lorazepam alone,over 3 hours
same,anxiety reported,[7]; [18],hostile and anxious
same,sedation reported,[7]; [18],somewhat sedated
same,anxiety reported,[7]; [19],less anxious
same,sedation reported,[7]; [19],sedated
same,anxiety reported,[7]; [20],upon waking felt much less anxious than without treatment
same,sedation reported,[7]; [20],as sedated as with Lorazepam alone
same,Tmax,[4],2 h
same,bioactivity,[4],90%
